Earlier results in patent publication US20140127179A1, “Natural Killer Cell Formulations” (SCIENTIFIC FORMULATIONS, LLC, priority 2012, published 2014).
Read-outs that look alike come from different tables or passages of the source.

Key:
[1] = test system: Natural Killer cells (NKC); set-up: key: +: Increased NK cell activity was shown; ±: mixed results; conditions: summary of literature studies
cancer cells = test system: cancer cells; set-up: key: +: Direct Anti-cancer Activity was shown; conditions: direct anti-cancer activity, summary of literature studies
[2] = 42 men, 300 μg of Se
3T3-SV40 fibroblasts = conditions: for fibroblast sensitivity to lytic activity of NKC: in several hours, NAC 10 mM
[3] = test system: lymphokine-activated killer (LAK) cell; conditions: PPS, MPS and LEN, the three combined; P<0.01
[4] = test system: NK cell and ADCC activity; conditions: CLL patients, from 0.01 to 1 microgram/ml
[5] = test system: NK cell activity of peripheral mononuclear cells
NK cell activity [6] = conditions: 7 days after the drug injection
[7] = test system: interferon-gamma-producing NK cell; conditions: nutritional intake of 10 mg
NK cell activity [8] = conditions: combinations of 1 mM thioproline and NAC, 5 μM Vitamin C and vitamin E; all ages studied
NK cell function = conditions: two weeks of high-dose treatment, cancer patients
tumor cells = conditions: inhibited platelet aggregation
[9] = doses up to 5,000 mg
[10] = test system: transformed and embryonic cells
metastases = conditions: NAC administered with haemin and IL-2
[11] = test system: Human promyelocytic leukemia cells HL60; conditions: HL60 cultured with 30 nM for three years, injected into nu/nu mice

[Se] [Selenium]
NKC Activity [1]: +
Anti-Cancer (cancer cells): +
counts of NKC and T lymphocytes expressing both sub-units of IL2R [2]: increased counts

Oc1ccc(C=Cc2cc(O)cc(O)c2)cc1 [Resveratrol]
NKC Activity [1]: +
Anti-Cancer (cancer cells): +

O=C(O)CCCCC1CCSS1 (stereo not drawn) [ALA, Alpha-Lipoic Acid]
NKC Activity [1]: ±
fibroblast sensitivity to lytic activity of NKC (3T3-SV40 fibroblasts): reduced significantly

COc1cc(/C=C/C(=O)CC(=O)/C=C/c2ccc(O)c(OC)c2)ccc1O [Curcumin]
NKC Activity [1]: +

CC(C)=CCC[C@](C)(O)[C@H]1CC[C@]2(C)[C@@H]1[C@H](O)C[C@@H]1[C@@]3(C)CC[C@H](O[C@@H]4O[C@H](CO)[C@@H](O)[C@H](O)[C@H]4O)C(C)(C)[C@@H]3CC[C@]12C [Ginsenoside Rh2]
growth of B16 melanoma cells (B16 melanoma cells; mouse, in vivo): inhibits
NK cell activity in spleen cells (B16 melanoma cells; tumor-bearing nude mice): increases

Lentinan
NKC Activity [1]: +
Anti-Cancer (cancer cells): +
reduction of the dose of rIL-2 needed to have the same LAK activity [3]: 50%
enhancement of NK cell and ADCC activity [4]: dose-related increase
interferon level in the peripheral blood circulation ([5]; cancer patients, 12 h following administration): elevated
NK cell activity of peripheral mononuclear cells ([5]; cancer patients, in 48 h): enhanced
patients with increased NK cell activity of lymphocytes ([5]; n=11, i.v. 2 mg, on the following day): four
NK cell activity (NK cell activity [6]): significantly enhanced

O=c1c(-c2ccc(O)cc2)coc2cc(O)cc(O)c12 [Geinstein, Genistein]
NKC Activity [1]: +

[Zn] [Zinc]
NKC Activity [1]: +
Anti-Cancer (cancer cells): +
quantity of interferon-gamma-producing NK cell [7]: increases

Vitamin E
NKC Activity [1]: +
Anti-Cancer (cancer cells): +
NK cell activity (NK cell activity [8]): enhancement
NK cell function (NK cell function): enhanced

O=C1O[C@H]([C@@H](O)CO)C(O)=C1O [Vitamin C, Ascorbic acid]
NKC Activity [1]: +
Anti-Cancer (cancer cells): +
increase of NK cell cytotoxicity (tumor cells): 285%
NKC function of survivors versus baseline (end-stage cancers; 16 survivors, p<0.01): significantly higher
patients still alive (end-stage cancers; as of a mean of 6 months): 16/20
mutagenic lesions; negative effects on NK cell activity, apoptosis or cell cycle [9]: did not induce mutagenic lesions nor had negative effects
NK cell activity (NK cell activity [8]): enhancement

O=C(O)[C@@H]1CSCN1 [thioproline]
NK cell activity (NK cell activity [8]): enhancement

C=C1CC[C@H](O)C/C1=C/C=C1\CCC[C@]2(C)[C@@H]([C@H](C)CCCC(C)C)CC[C@@H]12 [Vitamin D3]
NKC Activity [1]: +
Anti-Cancer (cancer cells): +

CC(=O)N[C@@H](CS)C(=O)O [NAC, N-Acetyl-Cysteine]
NKC Activity [1]: +
susceptibility of transformed and embryonic cells to NK cell activity ([10]; 10 mM): loss of susceptibility
susceptibility of murine embryonic fibroblasts (MEFs) to NK cell activity ([10]; pretreated with 10 mM): lose their susceptibility
response to NK cell activity after removal of the antioxidant (3T3-SV40 fibroblasts; 18-20 h after NAC removal): resistance to NK cell activity
sensitivity to lysis by NKC mouse splenocytes (3T3-SV40 fibroblasts; 18-20 h cultivation, 10 mM): did not change their sensitivity
fibroblast sensitivity to lytic activity of NKC (3T3-SV40 fibroblasts): did not change it
decrease in metastases (metastases): 63%
NK cell activity (NK cell activity [8]): enhancement

C=C1/C(=C\C=C2/CCC[C@]3(C)[C@@H]([C@H](C)CCCC(C)(C)O)CC[C@@H]23)C[C@@H](O)C[C@@H]1O [1,25 D3, 1,25-dihydroxyvitamin D3]
tumor growth [11]: reduced rate of tumor growth
